Experimental data from US9701670B2, “Pyrazolyl-ureas as kinase inhibitors” (RESPIVERT LIMITED, priority 2013, dated 2017).

Legend:
[1] = molecular target: T1, p38 MAPKα isoform (MAPK14) (Homo sapiens (Human), UniProt Q16539); test: p38 MAPKα enzyme inhibition (FRET, Z-LYTE), Method 1; format: biochemical; conditions: Method 1 (Table 4a1)
GSK 3α = GSK 3α (Homo sapiens (Human), UniProt P49840); test: GSK 3α enzyme inhibition (FRET, Z-LYTE), Method 2; format: biochemical; conditions: Method 2, different laboratory (Table 4a2); read-out: IC50 Values for Enzyme Inhibition GSK3α
Protocol: (§1) The enzyme inhibitory activities of compounds disclosed herein are determined by FRET using synthetic peptides labelled with both donor and acceptor fluorophores (Z-LYTE, Invitrogen Ltd., Paisley, UK).
The inhibitory activities of compounds of the invention against the GSK 3α enzyme isoform (Invitrogen), are evaluated by determining the level of activation/phosphorylation of the target peptide. The GSK3-α protein (500 ng/mL, 2.5 μL) is mixed with the test compound (2.5 μL at either 4 μg/mL, 0.4 μg/mL, 0.04 μg/mL, or 0.004 μg/mL) for 2 hr at RT. The FRET peptide (8 μM, 2.5 μL), which is a phosphorylation target for GSK3α, and ATP (40 μM, 2.5 μL) are then added to the enzyme/compound mixture and the resulting mixture incubated for 1 hr. Development reagent (protease, 5 μL) is added for 1 hr prior to detection in a fluorescence microplate reader (Varioskan® Flash, ThermoFisher Scientific).
(§2) In all cases, the site-specific protease cleaves non-phosphorylated peptide only and eliminates the FRET signal. Phosphorylation levels of each reaction are calculated using the ratio of coumarin emission (donor) over fluorescein emission (acceptor), for which high ratios indicate high phosphorylation and low ratios indicate low phosphorylation levels.

[2] = test system: Differentiated U937 cells; test: (l) Cell viability: MTT assay; format: cell-based, human; conditions: 1 μg/mL
Summary of the method: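 Differentiated U937 cells were exposed to compound at 1 or 10 μg/mL either 4 h in 5% FCS RPMI1640 or 24 h in 10% FCS RPMI1640, then given MTT for 1 h, DMSO-solubilised and read at 550 nm. Percent viability loss versus 0.5% DMSO vehicle; apparent gains appear negative.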

[3] = molecular target: T1, p38 MAPKα isoform (MAPK14); test: p38 MAPKα enzyme inhibition (FRET, Z-LYTE), Method 2; format: biochemical; conditions: Method 2, different laboratory (Table 4a2)
Protocol: as §1
The inhibitory activities of test compounds against the p38 MAPKα isoform (MAPK14: Invitrogen), are evaluated indirectly by determining the level of activation/phosphorylation of the down-stream molecule, MAPKAP-K2. The p38 MAPKα protein (80 ng/mL, 2.5 μL) is mixed with the test compound (2.5 μL of either 4 μg/mL, 0.4 μg/mL, 0.04 μg/mL or 0.004 μg/mL) for 2 hr at RT. […] The mixture is incubated for 1 hr at RT. Development reagent (protease, 5 μL) is added for 1 hr prior to detection in a fluorescence microplate reader (Varioskan® Flash, ThermoFisher Scientific).
as §2

[4] = test system: Intestinal mucosa biopsies from the inflamed regions of the colon of IBD patients; test: (h) Human biopsy assay (cytokine release); format: cell-based
Protocol: Intestinal mucosa biopsies are obtained from the inflamed regions of the colon of IBD patients. The biopsy material is cut into small pieces (2-3 mm) and placed on steel grids in an organ culture chamber at 37° C. in a 5% CO2/95% O2 atmosphere in serum-free media. DMSO control or test compounds at the desired concentration are added to the tissue and incubated for 24 hr in the organ culture chamber. The supernatant is harvested for determination of IL-6, IL-8, […] and TNFα levels by R&D ELISA.

BDF1 mice = test: (C) TNBS-induced colitis in mice; format: in vivo, mouse; set-up: TNBS Ulcer grade / TNBS LP inflammation: scale not given here; conditions: 2 days; for TNBS LP inflammation / TNBS Ulcer grade: mice
Protocol: Non-fasted, 10-12 week old, male BDF1 mice are dosed by oral gavage twice daily with either vehicle (5 mL/kg), reference item (Budesonide 2.5 mg/kg) or test compound (1, 5 or 50 mg/kg) one day before (Day −1) stimulation of the inflammatory response by treatment with 2,4,6-trinitrobenzenesulphonic acid (TNBS) (15 mg/mL in 50% ethanol/50% saline). On Day 0 of the study TNBS (200 μL) is administered intra-colonically via a plastic catheter followed by BID dosing of the vehicle, reference or test compound for 2 or 4 days. During the study animals are weighed every day and stool observations are made and recorded as a score, based on stool consistency. At the time of sacrifice on Day 2 (or Day 4) the large intestine is removed and the length and weight recorded. Sections of the colon are taken for either MPO analysis to determine neutrophil infiltration or for histopathology involving scoring to determine disease severity.

[5] = test system: β-catenin in d-U937 cells; test: (m) Accumulation of β catenin in d-U937 cells; format: cell-based, human
Protocol: U937 cells, a human monocytic cell line, are differentiated into macrophage-type cells by incubation with PMA; (100 ng/mL) for between 48 to 72 hr. The cells are then incubated with either final concentrations of test compound or vehicle for 18 hr. The induction of β-catenin by the test compounds is stopped by replacing the media with 4% formaldehyde solution. Endogenous peroxide activity is neutralised by incubating with quenching buffer (100 μL, 0.1% sodium azide, 1% H2O2 in PBS with 0.05% Tween-20) for 20 min. The cells are washed with washing buffer (200 μL; PBS containing 0.05% Tween-20) and incubated with blocking solution (200 μL; 5% milk in PBS) for 1 hr, re-washed with washing buffer (200 μL) and then incubated overnight with anti-β-catenin antibody solution (50 μL) in 1% BSA/PBS (BD, Oxford, UK).
After washing with washing buffer (3×200 μL; PBS containing 0.05% Tween-20), cells are incubated with an HRP-conjugated secondary antibody solution (100 μL) in 1% BSA/PBS (Dako, Cambridge, UK) and the resultant signal is determined colourimetrically (OD: 450 nm with a reference wavelength of 655 nm) using TMB substrate (50 μL; R&D Systems, Abingdon, UK). This reaction is stopped by addition of 1N H2SO4 solution (50 μL). Cells are then washed with washing buffer and 2% crystal violet solution (50 μL) is applied for 30 min. After washing with washing buffer (3×200 μL), 1% SDS (100 μL) is added to each well and the plates are shaken lightly for 1 hr prior to measuring the absorbance at 595 nm (Varioskan® Flash, Thermo-Fisher Scientific).
The measured OD450-655 readings are corrected for cell number by dividing the OD450-655 by the OD595 readings. […] A signal less than 0.15 (15%) of that observed for the standard control is designated as “-ve”.

T1 sequence (Q16539 whole entry, canonical isoform): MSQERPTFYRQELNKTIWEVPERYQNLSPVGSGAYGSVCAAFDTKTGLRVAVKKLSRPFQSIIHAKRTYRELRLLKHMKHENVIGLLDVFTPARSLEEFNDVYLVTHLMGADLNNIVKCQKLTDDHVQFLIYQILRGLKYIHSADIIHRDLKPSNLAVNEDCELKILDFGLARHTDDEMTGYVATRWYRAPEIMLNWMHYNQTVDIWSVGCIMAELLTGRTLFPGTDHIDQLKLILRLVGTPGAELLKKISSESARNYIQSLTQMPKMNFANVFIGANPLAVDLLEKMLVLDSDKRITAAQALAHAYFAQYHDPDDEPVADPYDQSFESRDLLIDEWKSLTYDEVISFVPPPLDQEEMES
Sequence of GSK 3α (P49840 whole entry): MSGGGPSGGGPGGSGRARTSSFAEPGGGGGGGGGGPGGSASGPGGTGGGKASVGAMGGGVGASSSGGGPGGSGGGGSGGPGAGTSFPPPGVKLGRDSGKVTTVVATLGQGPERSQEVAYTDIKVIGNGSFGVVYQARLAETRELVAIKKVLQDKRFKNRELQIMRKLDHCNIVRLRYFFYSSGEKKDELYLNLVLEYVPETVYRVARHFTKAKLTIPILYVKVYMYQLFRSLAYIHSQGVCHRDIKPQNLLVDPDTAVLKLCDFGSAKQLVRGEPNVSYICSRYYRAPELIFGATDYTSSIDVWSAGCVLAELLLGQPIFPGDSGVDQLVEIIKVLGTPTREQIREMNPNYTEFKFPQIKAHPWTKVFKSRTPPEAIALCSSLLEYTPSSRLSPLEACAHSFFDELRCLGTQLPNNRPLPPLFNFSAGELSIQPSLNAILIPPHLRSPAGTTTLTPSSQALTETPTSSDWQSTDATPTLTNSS

| IC50 [1] | IC50 (GSK 3α) | IC50 [3] | SMILES | Cell viability at time point in d-U937 cells 4 h [2] | Cell viability at time point in d-U937 cells 24 h [2] | also measured |
| --- | --- | --- | --- | --- | --- | --- |
| 0.013 µM | 13.2 µM | – | COc1cc(C(=O)NCCN2CCOCC2)ccc1Nc1nccc(Oc2ccc(NC(=O)Nc3cc(C(C)C)nn3-c3ccc(C)cc3)c3ccccc23)n1 [Example 36, 4-((4-((4-(3-(3-isopropyl-1-(p-tolyl)-1H-pyrazol-5-yl)ureido)naphthalen-1-yl)oxy)pyrimidin-2-yl)amino)-3-methoxy-N-(2-morpholinoethyl)benzamide] | −ve (−ve and +ve indicate that the value is below and above respectively, the no significant effect threshold, defined as 30% inhibition at 1 μg/mL at the time point indicated.) | −ve (−ve and +ve indicate that the value is below and above respectively, the no significant effect threshold, defined as 30% inhibition at 1 μg/mL at the time point indicated.) | – |
| – | – | 0.041 µM | C#Cc1cc(Nc2nccc(Oc3ccc(NC(=O)Nc4cc(C(C)C)nn4-c4ccc(C)cc4)c4ccccc34)n2)cc(C(=O)NCCN2CCOCC2)c1 [Example 46, 3-ethynyl-5-((4-((4-(3-(3-isopropyl-1-(p-tolyl)-1H-pyrazol-5-yl)ureido)naphthalen-1-yl)oxy)pyrimidin-2-yl)amino)-N-(2-morpholinoethyl)benzamide] | −ve (−ve and +ve indicate that the value is below and above respectively, the no significant effect threshold, defined as 30% inhibition at 1 μg/mL at the time point indicated.) | −ve (−ve and +ve indicate that the value is below and above respectively, the no significant effect threshold, defined as 30% inhibition at 1 μg/mL at the time point indicated.) | Cytokine release from biopsies of UC patients IL-1b release ([4]; 1 μg/mL, DMSO control 100%): 35 ± 14%; Cytokine release from biopsies of UC patients IL-6 release ([4]; 1 μg/mL, DMSO control 100%): 44 ± 38%; Cytokine release from biopsies of UC patients IL-8 release ([4]; 1 μg/mL, DMSO control 100%): 49 ± 35%; cytokine release from biopsies from ulcerative colitis (UC) patients ([4]; added to biopsies in vitro): markedly reduced IL-1b, IL-6 and IL-8 release; histopathology analysis, in vivo model of colonic inflammation (BDF1 mice; TNBS-induced colitis, dosed orally at 5 mg/kg): significant activity; TNBS LP inflammation (BDF1 mice; 1 mg/kg oral BID): 3.1 ± 0.6; TNBS Ulcer grade (BDF1 mice; 1 mg/kg oral BID): 3.4 ± 0.6; TNBS LP inflammation (BDF1 mice; 5 mg/kg oral BID): 2.0 ± 0.5; TNBS Ulcer grade (BDF1 mice; 5 mg/kg oral BID): 2.4 ± 0.6 |
| 0.002 µM | 13.5 µM | – | CCc1cc(NC(=O)Nc2ccc(Oc3ccnc(Nc4cc(OC)cc(C(=O)NCCN5CCOCC5)c4)n3)c3ccccc23)n(-c2ccc(C)cc2)n1 [Example 49, 3-((4-((4-(3-(3-ethyl-1-(p-tolyl)-1H-pyrazol-5-yl)ureido)naphthalen-1-yl)oxy)pyrimidin-2-yl)amino)-5-methoxy-N-(2-morpholinoethyl)benzamide] | −ve (−ve and +ve indicate that the value is below and above respectively, the no significant effect threshold, defined as 30% inhibition at 1 μg/mL at the time point indicated.) | −ve (−ve and +ve indicate that the value is below and above respectively, the no significant effect threshold, defined as 30% inhibition at 1 μg/mL at the time point indicated.) | – |
| 0.002 µM | 13.3 µM | – | COc1cc(Nc2nccc(Oc3ccc(NC(=O)Nc4cc(C5CC5)nn4-c4ccc(C)cc4)c4ccccc34)n2)cc(C(=O)NCCN2CCOCC2)c1 [Example 50, 3-((4-((4-(3-(3-cyclopropyl-1-(p-tolyl)-1H-pyrazol-5-yl)ureido)naphthalen-1-yl)oxy)pyrimidin-2-yl)amino)-5-methoxy-N-(2-morpholinoethyl)benzamide] | −ve (−ve and +ve indicate that the value is below and above respectively, the no significant effect threshold, defined as 30% inhibition at 1 μg/mL at the time point indicated.) | −ve (−ve and +ve indicate that the value is below and above respectively, the no significant effect threshold, defined as 30% inhibition at 1 μg/mL at the time point indicated.) | – |
| – | 12.1 µM | 1.21 µM | C#Cc1cc(Nc2nccc(Oc3ccc(NC(=O)Nc4cc(C(F)(F)C(F)(F)F)nn4-c4ccc(C)cc4)c4ccccc34)n2)cc(C(=O)NCCN2CCOCC2)c1 [Example 74, 3-Ethynyl-N-(2-morpholinoethyl)-5-((4-((4-(3-(3-(perfluoroethyl)-1-(p-tolyl)-1H-pyrazol-5-yl)ureido)naphthalen-1-yl)oxy)pyrimidin-2-yl)amino)benzamide] | – | – | – |
| – | 13.8 µM | 0.105 µM | C#Cc1cc(Nc2nccc(Oc3ccc(NC(=O)Nc4cc(C(C)(C)C)nn4-c4ccc(OC)cc4)c4ccccc34)n2)cc(C(=O)NCCOC)c1 [Example 84, 3-((4-((4-(3-(3-(tert-Butyl)-1-(4-methoxyphenyl)-1H-pyrazol-5-yl)ureido)-naphthalen-1-yl)oxy)pyrimidin-2-yl)amino)-5-ethynyl-N-(2-methoxyethyl)benzamide] | – | – | % β-catenin induction ([5]; 1 μg/mL test compound): 3%; % β-catenin induction ([5]; 5 μg/mL test compound): 3%; % β-catenin induction ([5]; 10 μg/mL test compound): 5% |
| – | 15.3 µM | – | C#Cc1cc(Nc2nccc(Oc3ccc(NC(=O)Nc4cc(C(C)C)nn4-c4ccc(C)cc4)c(Cl)c3Cl)n2)cc(C(N)=O)c1 [Example 89, 3-((4-(2,3-Dichloro-4-(3-(3-isopropyl-1-(p-tolyl)-1H-pyrazol-5-yl)ureido)-phenoxy)pyrimidin-2-yl)amino)-5-ethynylbenzamide] | – | – | – |
